This passage reports IC50 results from ChEMBL document CHEMBL1141060, “A new synthesis of isoaurones: cytotoxic activity of compounds related to the alleged structure of isoaurostatin” (Bioorg Med Chem Lett, 2005).

SMILES strings stand for the structures. pIC50: −log10 of the molar value.

For this assay, the system named is NCI-H460. In words: Cytotoxic activity against human non-small lung carcinoma cell line H460. It counts as functional, cell-based.
In the case of `COc1ccc(/C=C2/C(=O)Oc3ccccc32)cc1`, the pIC50 – broadly, the negative decadic logarithm of the IC50, by convention in mol/L – is under 4.41.
The compound `COc1cc(OC)c2c(c1)OC(=O)/C2=C/c1ccc(OC)c(O)c1` gave a pIC50 of 5.06.
`COc1cc(/C=C2/C(=O)Oc3ccccc32)cc(OC)c1OC` had a pIC50 of 4.42.
`CC(=O)Oc1ccc(/C=C2/C(=O)Oc3ccc(OC(C)=O)cc32)cc1` gave a pIC50 of under 4.30.
For the compound `O=C1Oc2ccccc2/C1=C\c1ccc(OC(=O)c2ccccc2)cc1`, the pIC50 was under 4.52.
On to `O=C1Oc2ccccc2/C1=C\c1ccc(O)cc1`, for which the pIC50 is 5.00.
The same measure for `COc1ccc(/C=C2/C(=O)Oc3ccccc32)cc1O`: 5.03.
